Test results from PubChem BioAssay AID248 (DTP/NCI, 2004).
Values joined by “and” are separate entries in the source; they are usually repeats but may differ in a detail not shown here. Equal entries are not always repeated. Inconclusive results and toxic doses are left out. No stated cut-off is given here; in the data, active means T/C of 150% or more; inactive means T/C below 125%.

System: L1210 leukemia ip in BDF1 mice, survival T/C
Experiment: NCI In Vivo Anticancer Drug Screen. Data for tumor model L1210 Leukemia (intraperitoneal) in B6D2F1 (BDF1) mice
Conditions: endpoint: mean survival time, higher = longer survival
Outline: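 Transplantable tumor model; survival measured in treated vs vehicle control mice. Value = treated/control.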

[1] = dose: 400.0 mg/kg/injection, schedule: Q04DX002 (ip), vehicle: saline with Tween-80
[2] = dose: 100.0 mg/kg/injection, schedule: Q01DX001 (ip), vehicle: Klucel (hydroxypropylcellulose) (HPC)
[3] = dose: 100.0 mg/kg/injection, schedule: Q04DX003 (ip), vehicle: Klucel (hydroxypropylcellulose) (HPC)
[4] = dose: 200.0 mg/kg/injection, schedule: Q01DX001 (ip), vehicle: Klucel (hydroxypropylcellulose) (HPC)
[5] = dose: 200.0 mg/kg/injection, schedule: Q04DX003 (ip), vehicle: Klucel (hydroxypropylcellulose) (HPC)
[6] = dose: 400.0 mg/kg/injection, schedule: Q01DX001 (ip), vehicle: Klucel (hydroxypropylcellulose) (HPC)
[7] = dose: 400.0 mg/kg/injection, schedule: Q04DX003 (ip), vehicle: Klucel (hydroxypropylcellulose) (HPC)
[8] = dose: 100.0 mg/kg/injection, schedule: Q01DX001 (ip), vehicle: other
[9] = dose: 200.0 mg/kg/injection, schedule: Q01DX001 (ip), vehicle: other
[10] = dose: 400.0 mg/kg/injection, schedule: Q01DX001 (ip), vehicle: other
[11] = dose: 100.0 mg/kg/injection, schedule: Q04DX003 (ip), vehicle: saline
[12] = dose: 100.0 mg/kg/injection, schedule: Q01DX009 (ip), vehicle: Klucel (hydroxypropylcellulose) (HPC)
[13] = dose: 200.0 mg/kg/injection, schedule: Q01DX009 (ip), vehicle: Klucel (hydroxypropylcellulose) (HPC)
[14] = dose: 400.0 mg/kg/injection, schedule: Q01DX009 (ip), vehicle: Klucel (hydroxypropylcellulose) (HPC)
[15] = dose: 100.0 mg/kg/injection, schedule: Q04DX002 (ip), vehicle: saline with Tween-80
[16] = dose: 200.0 mg/kg/injection, schedule: Q04DX002 (ip), vehicle: saline with Tween-80

Measured: T/C

O=C1c2ccccc2-c2c(I)cccc21
inactive: dose: 25.6 mg/kg/injection, schedule: Q04DX002 (ip), vehicle: saline with Tween-80 94 % of control | dose: 64.0 mg/kg/injection, schedule: Q04DX002 (ip), vehicle: saline with Tween-80 94 % of control | dose: 160.0 mg/kg/injection, schedule: Q04DX002 (ip), vehicle: saline with Tween-80 98 % of control | [1] 94 % of control

CCC#CC(O)(C(=O)OCC)C1CCCC1 (configuration not stated)
inactive: dose: 100.0 mg/kg/injection, schedule: Q01DX001 (ip), vehicle: saline 105 % of control | dose: 200.0 mg/kg/injection, schedule: Q01DX001 (ip), vehicle: saline 105 % of control | dose: 400.0 mg/kg/injection, schedule: Q01DX001 (ip), vehicle: saline 111 % of control

O=C(Nc1ccccc1C(F)(F)F)OCc1ccco1
inactive: dose: 100.0 mg/kg/injection, schedule: Q01DX001 (ip), vehicle: gum acacia 102 % of control and 91 % of control | dose: 100.0 mg/kg/injection, schedule: Q01DX009 (ip), vehicle: gum acacia 100 % of control | dose: 100.0 mg/kg/injection, schedule: Q04DX002 (ip), vehicle: gum acacia 95 % of control and 101 % of control | dose: 100.0 mg/kg/injection, schedule: Q04DX003 (ip), vehicle: gum acacia 94 % of control and 99 % of control | dose: 200.0 mg/kg/injection, schedule: Q01DX001 (ip), vehicle: gum acacia 98 % of control and 105 % of control | dose: 200.0 mg/kg/injection, schedule: Q01DX009 (ip), vehicle: gum acacia 97 % of control | dose: 200.0 mg/kg/injection, schedule: Q04DX002 (ip), vehicle: gum acacia 99 % of control and 108 % of control | dose: 200.0 mg/kg/injection, schedule: Q04DX003 (ip), vehicle: gum acacia 96 % of control and 92 % of control | dose: 400.0 mg/kg/injection, schedule: Q01DX001 (ip), vehicle: gum acacia 94 % of control and 95 % of control | dose: 400.0 mg/kg/injection, schedule: Q01DX009 (ip), vehicle: gum acacia 105 % of control | dose: 400.0 mg/kg/injection, schedule: Q04DX002 (ip), vehicle: gum acacia 99 % of control and 101 % of control | dose: 400.0 mg/kg/injection, schedule: Q04DX003 (ip), vehicle: gum acacia 108 % of control and 92 % of control

Clc1ccc2c(c1)C(=P(c1ccccc1)(c1ccccc1)c1ccccc1)c1cc(Cl)cc(Cl)c1-2
inactive: [2] 96 % of control | [3] 102 % of control | [4] 96 % of control | [5] 95 % of control | [6] 91 % of control | [7] 93 % of control

C[S+]1Cc2ccccc2C1
inactive: dose: 100.0 mg/kg/injection, schedule: Q04DX003 (ip), vehicle: saline with Tween-80 106 % of control | dose: 200.0 mg/kg/injection, schedule: Q04DX003 (ip), vehicle: saline with Tween-80 104 % of control

O=C(O)c1c2ccc(Cl)cc2nc2[nH]c(=O)[nH]c(=O)c12
inactive: dose: 100.0 mg/kg/injection, schedule: Q04DX002 (ip), vehicle: Klucel (hydroxypropylcellulose) (HPC) 108 % of control | dose: 200.0 mg/kg/injection, schedule: Q04DX002 (ip), vehicle: Klucel (hydroxypropylcellulose) (HPC) 120 % of control | dose: 400.0 mg/kg/injection, schedule: Q04DX002 (ip), vehicle: Klucel (hydroxypropylcellulose) (HPC) 113 % of control

C/C=C1/C[N+]2(C)CCC34C(=C(C(=O)OC)C1CC32)Nc1ccc(O)cc14 (configuration not stated)
inactive: dose: 6.25 mg/kg/injection, schedule: Q01DX001 (ip), vehicle: saline with Tween-80 97 % of control | dose: 12.5 mg/kg/injection, schedule: Q01DX001 (ip), vehicle: saline with Tween-80 102 % of control | dose: 25.0 mg/kg/injection, schedule: Q01DX001 (ip), vehicle: saline with Tween-80 96 % of control

C=CCOc1ccnc(-c2ccccc2)n1
inactive: [2] 92 % of control | [4] 95 % of control | [6] 98 % of control

C[n+]1ccc(NC(=O)c2ccc(NC(=O)c3ccc(C(=O)Nc4ccc(C(=O)Nc5cc[n+](C)cc5)cc4)cc3)cc2)cc1
inactive: dose: 62.0 mg/kg/injection, schedule: Q01DX Z (ip), vehicle: carboxymethylcellulose (CMC) 103 % of control | [8] 97 % of control | dose: 100.0 mg/kg/injection, schedule: Q01DX009 (ip), vehicle: saline with Tween-80 105 % of control | dose: 100.0 mg/kg/injection, schedule: Q04DX003 (ip), vehicle: other 101 % of control | dose: 125.0 mg/kg/injection, schedule: Q01DX Z (ip), vehicle: carboxymethylcellulose (CMC) 118 % of control | [9] 104 % of control | dose: 200.0 mg/kg/injection, schedule: Q01DX009 (ip), vehicle: saline with Tween-80 115 % of control | dose: 200.0 mg/kg/injection, schedule: Q04DX003 (ip), vehicle: other 103 % of control | [10] 103 % of control | dose: 400.0 mg/kg/injection, schedule: Q01DX009 (ip), vehicle: saline with Tween-80 114 % of control | dose: 400.0 mg/kg/injection, schedule: Q04DX003 (ip), vehicle: other 98 % of control
active: dose: 500.0 mg/kg/injection, schedule: Q01DX Z (ip), vehicle: carboxymethylcellulose (CMC) 152 % of control

CC(=O)Nc1cc2c(cc1[N+](=O)[O-])-c1ccc(F)cc1C2=O
inactive: dose: 100.0 mg/kg/injection, schedule: Q01DX001 (ip), vehicle: carboxymethylcellulose (CMC) 100 % of control | dose: 200.0 mg/kg/injection, schedule: Q01DX001 (ip), vehicle: carboxymethylcellulose (CMC) 96 % of control | dose: 400.0 mg/kg/injection, schedule: Q01DX001 (ip), vehicle: carboxymethylcellulose (CMC) 99 % of control

O=C1OC(=O)C2C3OC(C(Br)C3Br)C12 (configuration not stated)
inactive: dose: 16.0 mg/kg/injection, schedule: Q04DX003 (ip), vehicle: saline 100 % of control | dose: 37.5 mg/kg/injection, schedule: Q04DX003 (ip), vehicle: saline 95 % of control | dose: 50.0 mg/kg/injection, schedule: Q04DX003 (ip), vehicle: saline 101 % of control | [11] 100 % of control and 90 % of control

O=C(OCC(O)C(O)C(O)C(O)COC(=O)c1ccccc1)c1ccccc1 (configuration not stated) (tested in a mixture with another compound)
inactive: dose: 100.0 mg/kg/injection, schedule: Q01DX001 (ip), vehicle: saline with Tween-80 103 % of control | dose: 200.0 mg/kg/injection, schedule: Q01DX001 (ip), vehicle: saline with Tween-80 100 % of control | dose: 400.0 mg/kg/injection, schedule: Q01DX001 (ip), vehicle: saline with Tween-80 90 % of control

CC(Cc1ccccc1)NC(=O)/C=C/C(=O)O (configuration not stated)
inactive: [12] 96 % of control | [3] 103 % of control | [13] 106 % of control | [5] 90 % of control | [14] 95 % of control | [7] 101 % of control

NC(=O)CC(NC(=O)C(F)(F)F)C(=O)O (configuration not stated)
inactive: dose: 100.0 mg/kg/injection, schedule: Q04DX003 (ip), vehicle: carboxymethylcellulose (CMC) 98 % of control | dose: 200.0 mg/kg/injection, schedule: Q04DX003 (ip), vehicle: carboxymethylcellulose (CMC) 98 % of control | dose: 400.0 mg/kg/injection, schedule: Q04DX003 (ip), vehicle: carboxymethylcellulose (CMC) 88 % of control

Cc1ccc(S(=O)(=O)N2CC(=O)N(S(=O)(=O)c3ccc(C)cc3)CC2=O)cc1
inactive: [8] 106 % of control | [9] 103 % of control | [10] 106 % of control

N=C(N)c1cccc(NC(=O)Nc2cccc(C(=N)N)c2)c1
inactive: dose: 15.0 mg/kg/injection, schedule: Q01DX Z (ip), vehicle: saline 104 % of control | dose: 30.0 mg/kg/injection, schedule: Q01DX Z (ip), vehicle: saline 104 % of control

COc1ccccc1N=Nc1c(O)n(-c2ccccc2C)c(=S)n(-c2ccc(C)cc2)c1=O
inactive: [2] 101 % of control | [4] 93 % of control

O=C(O)c1cccc([N+](=O)[O-])c1Br
inactive: [12] 94 % of control | [13] 100 % of control | [14] 91 % of control

C(=N\Nc1nc2ccccc2s1)/c1ccc2ccccc2n1
inactive: [12] 96 % of control | [13] 96 % of control

CNC(=O)NC(=O)C(C)(C)Oc1ccc(Cl)cc1
inactive: [11] 97 % of control | dose: 200.0 mg/kg/injection, schedule: Q04DX003 (ip), vehicle: saline 94 % of control

CCOC(=O)c1ccc(N=C2C(C)(C)C(=Nc3ccc(C(=O)OCC)cc3)C2(C)C)cc1
inactive: [15] 93 % of control | [16] 87 % of control | [1] 87 % of control

Nc1ncnc2c1CP(=O)(c1ccccc1)CC2 (configuration not stated)
inactive: [15] 103 % of control | [16] 103 % of control | [1] 103 % of control
